According to patent US20250312349A1, “COMPOSITION AND METHODS OF TREATING INTRACELLULAR PATHOGEN INFECTION” (UNIVERSITY HOSPITALS CLEVELAND MEDICAL CENTER, priority 2024, published 2025):

Columns and labels:
Lek and Fyn in T cells = conditions: cited from earlier work
T. gondii [1] = conditions: mice with ocular and cerebral toxoplasmosis, dependent on Beclin 1; cited from earlier work
T. gondii [2] = assay: In vitro infection of mammalian cells with T. gondii tachyzoites, counted by light microscopy; assay type: cell-based, Toxoplasma gondii; conditions: CHO cells, 0.3 μM or 1 μM, 2 or 24 hours
Description: Chinese Hamster Ovary (CHO; a gift from Cathleen Carlin, Case Western Reserve University), human retinal pigment epithelial (RPE) cells (ARPE-19; American Type Culture Collection, ATCC, Manassas, VA), and mouse endothelial […]) transduced with Src shRNA or control encoding lentiviral vectors were cultured in complete media. Mouse brain endothelial cells expressing WT or DN EGFR were isolated as described. Endothelial cells were cultured in medium containing Endothelial Cell Growth Supplement (ECGS; Sigma-Aldrich, St Louis, MO). Mammalian cells were infected with tachyzoites of the RH or PTG stains of T. gondii; RH strain was used unless otherwise indicated. Cells were fixed at 2 hours or 24 hours followed by staining using Hema 3 Manual Staining System (Fisherbrand, Hampton, NH). At least 100 to 200 cells per monolayer were counted by examining a minimum of 5 random areas per monolayer. The percentage of infected cells, tachyzoites and vacuoles per 100 cells, and tachyzoites per vacuole were counted using light microscopy. Three independent experiments were performed. Saracatinib, Gefitinib (LC Laboratories, Woburn, MA) and lysosomal inhibitors leupeptin and pepstatin (10 μM; Millipore Sigma, Burlington, MA) were used in specified experiments. Each cell monolayer was generated and infected independently.

Structure (SMILES): Cc1nc(Nc2ncc(C(=O)Nc3c(C)cccc3Cl)s2)cc(N2CCN(CCO)CC2)n1.O [Dasatinib, N-(2-chloro-6-methylphenyl)-2-[[6-[4-(2-hydroxyethyl)-1-piperazinyl]-2-methyl-4-pyrimidinyl]amino]-5-thiazole carboxamide monohydrate]
- IFN-γ production by T cells (Lek and Fyn in T cells): impaired
- activity of Lek and Fyn in T cells (Lek and Fyn in T cells): reduced

Structure (SMILES): COc1cc2ncnc(Nc3ccc(F)c(Cl)c3)c2cc1OCCCN1CCOCC1 [Gefitinib]
- parasite load and histopathology in the eye and brain (T. gondii [1]): partial reduction

Structure (SMILES): Cc1ccc(NC(=O)c2ccc(CN3CCN(C)CC3)cc2)cc1Nc1nccc(-c2cccnc2)n1 [Imatinib]
- parasite survival (infected cells, tachyzoites per 100 cells) (T. gondii [2]): No significant difference
